Each molecule was assayed on BV-2 cells (assay: Griess assay of LPS-induced nitrite release in BV-2 cells). Conditions: BV-2 cells, Griess assay; expressed as percentages of the nitrite level produced upon DMSO treatment (100%).
Type: cell-based
Procedure: Cells increase the secretion of nitrite when induced to be inflammatory, but decrease the secretion of nitrite in the presence of an anti-inflammatory agent. […] Cells were treated with the compounds in the absence or presence of 100 ng/mL LPS (lipopolysaccharide). After 24 hrs of incubation, the cell culture media were reacted with Griess reagent (0.1% naphthylethylenediamine dihydrochloride and 1% sulfanilamide in 2% phosphoric acid). Absorbance was measured at 550 nm using a microplate reader, and the level of nitrite was estimated by comparison with a sodium nitrite standard curve.

SMILES	NO inhibition (%)
CC1(C)Oc2cc(O)ccc2C2C1=CCn1c(=O)n(C3CCCCC3)c(=O)n12 (centres unmarked) [Chemical Formula 3]	38.0
Cn1c(=O)n2n(c1=O)C1C(=CC2)C(C)(C)Oc2cc(O)ccc21 (centres unmarked) [Chemical Formula 4]	75.0
CC1(C)Oc2cc(O)ccc2C2C1=CCn1c(=O)n(Cc3ccccc3)c(=O)n12 (centres unmarked) [Chemical Formula 5]	63.0
Cc1ccc(-n2c(=O)n3n(c2=O)C2C(=CC3)C(C)(C)Oc3cc(O)ccc32)cc1 (centres unmarked) [Chemical Formula 6]	41.8
CC1(C)Oc2cc(O)ccc2C2C1=CCn1c(=O)n(-c3ccc(C(C)(C)C)cc3)c(=O)n12 (centres unmarked) [Chemical Formula 7]	92.1
COc1ccc(-n2c(=O)n3n(c2=O)C2C(=CC3)C(C)(C)Oc3cc(O)ccc32)cc1 (centres unmarked) [Chemical Formula 8]	77.7
COc1cccc(-n2c(=O)n3n(c2=O)C2C(=CC3)C(C)(C)Oc3cc(O)ccc32)c1 (centres unmarked) [Chemical Formula 9]	90.8
CC1(C)Oc2cc(O)ccc2C2C1=CCn1c(=O)n(-c3ccc(F)cc3)c(=O)n12 (centres unmarked) [Chemical Formula 10]	76.4
CC1(C)Oc2cc(O)ccc2C2C1=CCn1c(=O)n(-c3ccccc3I)c(=O)n12 (centres unmarked) [Chemical Formula 11]	55.2
CC1(C)Oc2cc(O)ccc2C2C1=CCn1c(=O)n(-c3cccc([N+](=O)[O-])c3)c(=O)n12 (centres unmarked) [Chemical Formula 12]	70.4
O=c1n(-c2ccccc2)c(=O)n2n1CC=C1C2c2ccc(O)cc2OC12CCCC2 (centres unmarked) [Chemical Formula 13]	70.4
O=c1n(C2CCCCC2)c(=O)n2n1CC=C1C2c2ccc(O)cc2OC12CCCC2 (centres unmarked) [Chemical Formula 14]	48.8
Cn1c(=O)n2n(c1=O)C1C(=CC2)C2(CCCC2)Oc2cc(O)ccc21 (centres unmarked) [Chemical Formula 15]	41.4
O=c1n(Cc2ccccc2)c(=O)n2n1CC=C1C2c2ccc(O)cc2OC12CCCC2 (centres unmarked) [Chemical Formula 16]	53.2
Cc1ccc(-n2c(=O)n3n(c2=O)C2C(=CC3)C3(CCCC3)Oc3cc(O)ccc32)cc1 (centres unmarked) [Chemical Formula 17]	72.1
CC(C)(C)c1ccc(-n2c(=O)n3n(c2=O)C2C(=CC3)C3(CCCC3)Oc3cc(O)ccc32)cc1 (centres unmarked) [Chemical Formula 18]	99.7
COc1ccc(-n2c(=O)n3n(c2=O)C2C(=CC3)C3(CCCC3)Oc3cc(O)ccc32)cc1 (centres unmarked) [Chemical Formula 19]	58.3
COc1cccc(-n2c(=O)n3n(c2=O)C2C(=CC3)C3(CCCC3)Oc3cc(O)ccc32)c1 (centres unmarked) [Chemical Formula 20]	63.0
O=c1n(-c2ccc(F)cc2)c(=O)n2n1CC=C1C2c2ccc(O)cc2OC12CCCC2 (centres unmarked) [Chemical Formula 21]	58.7

SMILES	NO inhibition (%)
O=c1n(-c2ccccc2I)c(=O)n2n1CC=C1C2c2ccc(O)cc2OC12CCCC2 (centres unmarked) [Chemical Formula 22]	67.1
O=c1n(-c2cccc([N+](=O)[O-])c2)c(=O)n2n1CC=C1C2c2ccc(O)cc2OC12CCCC2 (centres unmarked) [Chemical Formula 23]	81.5
CC1(C)Oc2cc(O)ccc2C2C1=CCn1c(=O)n(-c3ccc(Cl)cc3)c(=O)n12 (centres unmarked) [Chemical Formula 24]	22.3
O=c1n(-c2ccc(Cl)cc2)c(=O)n2n1CC=C1C2c2ccc(O)cc2OC12CCCC2 (centres unmarked) [Chemical Formula 25]	44.0
CC1(C)Oc2cc(O)ccc2C2C1=CCn1c(=O)n(-c3ccccc3Cl)c(=O)n12 (centres unmarked) [Chemical Formula 26]	57.1
O=c1n(-c2ccccc2Cl)c(=O)n2n1CC=C1C2c2ccc(O)cc2OC12CCCC2 (centres unmarked) [Chemical Formula 27]	44.8
CC1(C)Oc2cc(O)ccc2C2C1=CCn1c(=O)n(-c3ccc(Br)cc3)c(=O)n12 (centres unmarked) [Chemical Formula 28]	58.4
O=c1n(-c2ccc(Br)cc2)c(=O)n2n1CC=C1C2c2ccc(O)cc2OC12CCCC2 (centres unmarked) [Chemical Formula 29]	44.0
Cn1c(=O)n2ccc3c(n2c1=O)-c1ccc(O)cc1OC3(C)C [Chemical Formula 31]	12.1
CC1(C)Oc2cc(O)ccc2C2C1C=Cn1c(=O)n(-c3ccccc3)c(=O)n12 (centres unmarked) [Chemical Formula 32]	24.9
O=c1n(-c2ccccc2)c(=O)n2n1CCC1C2c2ccc(O)cc2OC12CCCC2 (centres unmarked) [Chemical Formula 33]	41.8
COc1cccc(-n2c(=O)n3n(c2=O)C2c4ccc(O)cc4OC(C)(C)C2C=C3)c1 (centres unmarked) [Chemical Formula 34]	4.9
CC1(C)Oc2ccccc2C2C1=CCn1c(=O)n(-c3ccccc3)c(=O)n12 (centres unmarked) [Chemical Formula 35]	1.2
COc1ccc2c(c1)OC(C)(C)C1=CCn3c(=O)n(-c4ccccc4)c(=O)n3C12 (centres unmarked) [Chemical Formula 36]	3.2
CCOC(=O)CCC1(C)Oc2cc(O)ccc2C2C1=CCn1c(=O)n(-c3ccccc3)c(=O)n12 (centres unmarked) [Chemical Formula 39]	44.9
CC1(C)Oc2cc(O)ccc2C2C1=CCn1c(=O)n(-c3ccc(C(F)(F)F)cc3)c(=O)n12 (centres unmarked) [Chemical Formula 47]	36.0
CC1(C)Oc2cc(O)ccc2C2C1=CCn1c(=O)n(-c3ccc(C(=O)c4ccccc4)cc3)c(=O)n12 (centres unmarked) [Chemical Formula 48]	65.5
COC(=O)CCC1(C)Oc2cc(O)ccc2C2C1=CCn1c(=O)n(-c3ccc(C)cc3)c(=O)n12 (centres unmarked) [Chemical Formula 49]	63.2
CCNC(=O)CCC1(C)Oc2cc(O)ccc2C2C1=CCn1c(=O)n(-c3ccc(C)cc3)c(=O)n12 (centres unmarked) [Chemical Formula 51]	6.2

— US9468641B2, “Anti-inflammatory pharmaceutical composition comprising benzopyranyl tetracycles” (SEOUL NATIONAL UNIVERSITY R&DB FOUNDATION, priority 2014, dated 2016)
